Experimental data from patent publication US11833204B2, “Visible light-activatable nanoparticles for cancer immunotherapy and use thereof” (KOREA INSTITUTE OF SCIENCE AND TECHNOLOGY, priority 2021, dated 2023).

What was measured:
[1] = Morphological analysis by transmission electron microscopy in saline; format: physicochemical; settings: 1 mg in 1 mL physiological saline
Protocol: (§1) The self-assembled nanoparticles (LT-NPs) prepared in Example 1, doxorubicin (DOX), and verteporfin (VPF) were used as samples. 1 mg of each sample was mixed with physiological saline (1 mL). […] The self-assembled nanoparticles (LT-NPs) were mixed with cathepsin B (Cat-B) protease (50 μg/mL). The mixture was allowed to react for 24 h.

[2] = Stability of LT-NPs in mouse plasma (size by DLS); format: in vitro ADME, BALB/c mice; settings: BALB/c mouse plasma, 0-72 h
Protocol: In this example, the stability of the self-assembled nanoparticles (LT-NPs) in a body fluid was determined. To this end, the self-assembled nanoparticles (LT-NPs) were stored in plasma samples from BALB/c mice for 0, 1, 3, 6, 24, 48, and 72 h and their sizes were measured by dynamic light scattering (DLS).

cathepsin B = cathepsin B (Homo sapiens, UniProt P07858); test: Cleavage of LT-NPs by cathepsin B (RP-HPLC, fluorescence, TEM); format: biochemical
Protocol: as §1
In this example, the activation of the self-assembled nanoparticles (LT-NPs) by cathepsin B (Cat-B) was determined. To this end, an experimental sample and a comparative sample were prepared and allowed to react in an incubator at 37° C. Specific cleavages by cathepsin B were evaluated at reaction times of 0, 9, and 24 h by reversed phase high-performance liquid chromatography (RT-HPLC).
Experimental sample (Cat-B): The self-assembled nanoparticles (LT-NPs) (10 μM) prepared in Example 1 were mixed with a 2-(N-morpholine)-ethanesulphonic acid (MES) buffer (200 μL) containing cathepsin B (10 μg).
Comparative sample (Cat-B+inhibitor): The self-assembled nanoparticles (LT-NPs) (10 μM) prepared in Example 1 were mixed with a 2-(N-morpholine)-ethanesulphonic acid (MES) buffer (200 μL) containing cathepsin B (10 μg) and a cathepsin B inhibitor (Z-FA-FMK, 50 μM).

CT26 cells [3] = test: Intracellular behaviour in CT26 cancer cells (confocal microscopy); format: cell-based
Protocol: (§2) The following experiment was conducted to evaluate the intracellular behaviors of the self-assembled nanoparticles (LT-NPs). First, 1×10^5 CT26 cells or H9C2 cells were plated in a 35 mm cell culture dish, treated with the self-assembled nanoparticles (LT-NPs, 5 μM) prepared in Example 1, and cultured for 24 h. Thereafter, cells were washed with Dulbecco's PBS (DPBS), fixed in 4% formaldehyde for 10 min, stained with 4′,6-diamidino-2-phenylindole (DAPI) for 5 min, and analyzed with a Leica TCS SP8 confocal microscope (Leica Microsystems GmbH).

H9C2 cells = test: Intracellular behaviour in H9C2 cardiomyocytes (confocal microscopy); format: cell-based; settings: H9C2, 5 μM, 24 h
Protocol: as §2

CT26 cells [4] = test: CT26 cell viability (CCK) after visible light irradiation; format: cell-based; settings: CT26, 0-10 μM, 24 h, 671 nm laser 40 mW 250 sec
Protocol: After CT26 cells were plated in a 96-well plate at a density of 5×10^3 cells/well, the wells were treated with doxorubicin (DOX) (0, 0.01, 0.1, 1, and or 10 μM), verteporfin (VPF) (0, 0.01, 0.1, 1, and 10 μM), mixtures thereof (DOX+VPF), and the self-assembled nanoparticles (LT-NPs) (0, 0.01, 0.1, 1, and 10 μM). After culture for 24 h, cells were exposed by irradiation with visible light using a 671 nm laser at 40 mW for 250 sec. Then, a cell culture medium containing […] of CCK solution was added to each well. Cells were further cultured for 20 min and the absorbance of the 96-well plate was measured at 450 nm on a VERSAmax™ microplate reader (Molecular Devices Corp., Sunnyvale, Calif.).

CT26 cells [5] = test: Apoptosis and necrosis of CT26 cells (Annexin V/PI flow cytometry); format: cell-based; settings: CT26, visible light
Protocol: The degrees of apoptosis and necrosis of cancer cells were quantitatively analyzed to accurately evaluate the anticancer effect of the self-assembled nanoparticles (LT-NPs). First, CT26 cells treated with doxorubicin (DOX), verteporfin (VPF), a mixture of doxorubicin and verteporfin (VPF+DOX) or the self-assembled nanoparticles (LT-NPs) and a laser were prepared as above and treated with 5 μg of Annexin V-FITC and 10 μg of PI solution for 10 min. Then, cells were cultured with a cell fixative for 10 min and further cultured with DAPI for 20 min. The degrees of apoptosis and necrosis were quantitatively analyzed using a flow cytometer (BD FACSVerse, BD bioscience, USA).

CT26 cells [6] = test: Immunogenic cell death: calreticulin expression; format: cell-based; settings: CT26, 5 μM, 24 h, +L/−L
Protocol: (§3) First, CT26 cells were plated in 35 mm cell culture dishes at a density of 1×10^5 cells/dish and doxorubicin (DOX) (5 μM), verteporfin (VPF) (5 μM) or the self-assembled nanoparticles (LT-NPs) (5 μM) were added to each dish. After 24-h culture, one half was exposed by irradiation with visible light using a 671 nm laser at 40 mW for 250 sec (+L) and the other half was not irradiated with visible light for comparison (−L). The immunogenic cell death of the self-assembled nanoparticles (LT-NPs) was evaluated using the cells and the cell culture media.
Cells were stained with APC-conjugated CRT antibody for 12 h and observed with a confocal fluorescence microscope.

CT26 cells [7] = test: Immunogenic cell death: extracellular HSP70 and HMGB1 (Western blotting); format: cell-based; settings: CT26, 5 μM, 24 h, +L/−L
Protocol: as §3
Before staining the cells with APC-conjugated CRT antibody, culture media were separated from the cells and the extracellular expression levels of HMGB1 and HSP70 were analyzed by Western blotting.
Each cell culture medium was treated with RIPA buffer (Cell Signaling Technology) at 4° C. for 30 min and the protein amount of the lysate was analyzed using a Pierce BCA protein assay kit (Thermo Fisher Scientific) according to the manufacturer's protocol. After SDS-PAGE, proteins were transferred to a PVDF membrane (Bio-Rad), which was then treated with Tris-buffered saline (TBS-T) containing 5% skim milk and 0.1% Tween-20. The membrane was incubated with primary antibodies at 4° C. overnight. HSP70 and HMGB1 antibodies were used as the primary antibodies. The membrane was washed with TBS-T and incubated with a secondary antibody at room temperature for 1 h. The membrane was washed with TBS-T, treated with EZ-Western Lumi Pico or Femto reagent (DoGen), and analyzed using Fusion-Solo software (Vilber) according to the manufacturer's protocol to determine band intensities.

CT26 cells [8] = test: Immunogenic cell death: extracellular ATP release; format: cell-based; settings: CT26, 5 μM, 24 h, +L/−L
Protocol: as §3
ATP was analyzed using a commercially available ATP assay kit (Beyotime Biotechnology) according to the manufacturer's protocol.

C=CC1=C(C)/C2=C/C3=NC(Cc4[nH]c(c(CCCCC(=O)OC)c4C)CC4N=C(CC1N2)C(C)=C4CCC(=O)N[C@H](Cc1ccccc1)C(=O)N[C@@H](CCCNC(=N)N)C(=O)N[C@H](CCCNC(=N)N)C(=O)NCC(=O)NC1C[C@@H](OC2C[C@](O)(C(=O)CO)Cc4c(O)c5c(c(O)c42)C(=O)c2c(OC)cccc2C5=O)O[C@@H](C)[C@H]1O)[C@@]1(C)C3=CC=C(C(=O)OC)[C@@H]1C(=O)OC (some centres unmarked) [LT-NPs, VPF-FRRG(SEQ ID NO: 1)-DOX]
morphology in physiological saline (TEM) [1]: dispersed without aggregation in saline | time-dependent change in size in mouse plasma [2]: stably maintained their morphology in the body fluid | cleavage by cathepsin B (cathepsin B; 10 μM, cathepsin B 10 μg in MES buffer, 37° C., RP-HPLC and fluorescence): cleaved by cathepsin B to release doxorubicin and the photosensitizer | morphology after reaction with cathepsin B (TEM) (cathepsin B; Cat-B 50 μg/mL, 24 h): degraded by cathepsin B | intracellular cleavage into doxorubicin and verteporfin (CT26 cells [3]; CT26, 5 μM, 24 h): cleaved specifically to cancer cells | presence in cells (CT26 cells [3]; CT26, 5 μM, 24 h): observed in both cardiomyocytes (H9C2) and cancer cells (CT26) | intracellular degradation with cathepsin B inhibitor (CT26 cells [3]; CT26 treated with cathepsin B inhibitor): not degraded and remained stable in the cytoplasm | presence in cells (H9C2 cells): observed in both cardiomyocytes (H9C2) and cancer cells (CT26) | state in normal cells (H9C2 cells): in a stable state in normal cells | cell viability versus doxorubicin and verteporfin (CT26 cells [4]): no significant differences | degree of apoptosis (and necrosis) (CT26 cells [5]): significantly higher than that caused by the conventional drugs | proportions of early apoptosis, late apoptosis and necrosis (CT26 cells [5]): lower proportions of late apoptosis and necrosis and a higher proportion of early apoptosis | degree of apoptosis (and necrosis) (CT26 cells [5]; listed as self-assembled nanoparticles): significantly higher apoptosis and necrosis | calreticulin expression (CT26 cells [6]): Significantly higher | HMGB-1 release (CT26 cells [7]): significantly higher | HSP70 release (CT26 cells [7]): significantly higher | ATP release (CT26 cells [8]): significantly higher
